Tests used:
human EDG-2 = target: T1, human EDG-2 (Homo sapiens, UniProt Q92633); assay: Evaluation of EDG-2 antagonistic activity by monitoring the change of intracellular calcium ion concentration; assay type: cell-based; conditions: CHO cells overexpressing human EDG-2 gene; LPA 100 nM; intracellular calcium (Fura2-AM)
T1 construct: expressed in transfected cells; host or cells: Chinese hamster ovary (CHO) cells
Description: Evaluation of EDG-2 Antagonistic Activity by Monitoring the Change of Intracellular Calcium Ion Concentration:
The EDG-2 antagonistic activity was evaluated by using Chinese hamster ovary (CHO) cells which overexpressed human EDG-2 gene. The EDG-2-expressing cells were cultured with Ham's F12 medium (manufactured by GIBCO BRL, No. 11765-047) containing 10% FBS (fetal bovine serum), penicillin/streptomycin and blasticidin (5 μg/ml). Firstly, in order to incorporate Fura2-AM (manufactured by Dojindo, No. 348-05831) into the cells, the cells were incubated in 5 μM Fura2-AM solution (10% FBS, 20 mM HEPES buffer (pH 7.4), 2.5 mM probenecid (manufactured by Sigma, No. P-8761)-containing Ham's F12 medium) at 37° C. for 60 minutes. […] A plate was set in a fluorescence drug screening system (manufactured by Hamamatsu Photonics K.K., FDSS-2000, FDSS-6000) and intracellular calcium ion concentration was measured for 30 seconds without stimulation, and a solution of the compound of present invention was added. Five minutes thereafter, LPA (final concentration: 100 nM) was added, and the intracellular calcium ion concentration before and after the addition at the interval of 3 seconds (excitation wavelength: 340 nm and 380 nm, fluorescence wavelength: 500 nm). […]

[1] = test system: urethral pressure of rats; assay: Effect on urethral pressure of rats (in vivo); parameters: species or system rat; conditions: anesthetized male CD(SD)IGS rats, intravenous, dose of 0.1 mg/kg to 1 mg/kg
Description: Effect on Urethral Pressure of Rats (in vivo):
Male CD(SD)IGS rats (Japan Charles River, 8 to 9-week-old at the use) were anesthetized by subcutaneous administration of urethane (1.2 g/kg). After dissection at the cervical midline, a jugular vein catheter for compound administration and an artery catheter for blood pressure measurement were inserted. Next, after dissection at the hypogastric midline, the urethra was ligated under the pubic bone. An urethra catheter for urethral pressure measurement was inserted into the urethra from the dissected the top of the bladder, and ligated and fixed at the bladder neck. Each of the urethra catheter and the artery catheter was connected with a pressure-transducer, and the urethral pressure and blood pressure were measured. […] Then, the test compound was intravenously administered, and the urethral pressure and blood pressure were measured for 20 minutes. […]
The test compound was administered at respective doses. […] For the evaluation of the effect of the test compound on the urethral pressure, the values subtracting the urethral pressure before the administration from the measured urethral pressures every 2 minutes after the administration were obtained and a graph of the change with time (decreased amount of the urethral pressure from the base line) was prepared.

T1 sequence (Q92633 whole entry): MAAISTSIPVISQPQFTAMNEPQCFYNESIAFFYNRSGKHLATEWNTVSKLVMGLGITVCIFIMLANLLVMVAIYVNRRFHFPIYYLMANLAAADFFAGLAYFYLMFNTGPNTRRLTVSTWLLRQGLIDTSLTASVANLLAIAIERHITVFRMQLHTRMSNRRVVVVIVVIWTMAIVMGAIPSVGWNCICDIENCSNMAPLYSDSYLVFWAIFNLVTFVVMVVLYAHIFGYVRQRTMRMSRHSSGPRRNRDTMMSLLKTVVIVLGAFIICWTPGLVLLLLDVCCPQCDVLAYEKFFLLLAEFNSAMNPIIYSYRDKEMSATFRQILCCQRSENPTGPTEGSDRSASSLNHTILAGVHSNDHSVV

COc1cc([C@@H](O)[C@@H](CCCc2ccccc2)Cc2ccc(CC(=O)O)cc2)cc(OC)c1OC [Example 20(2), (4-{(2S)-2-[(S)-hydroxy(3,4,5-trimethoxyphenyl)methyl]-5-phenylpentyl}phenyl)acetic acid]
IC50 (human EDG-2): 0.04 µM | change of the urethral pressure after administration [1]: significantly remarkable decrease of the urethral pressure | maximum decreased amount of the urethral pressure, of the absolute value of the urethral pressure (pressure before administration - base line value after death) [1]: 30 to 40%

Reference: US7875745B2, “Compounds having lysophosphatidic acid receptor antagonism and uses thereof” (Ono Pharmaceutical Co., Ltd., priority 2003, dated 2011)
